# In patent US9399649B2, “Compounds for treating spinal muscular atrophy” (PTC Therapeutics Inc., priority 2012, dated 2016):
# What was measured:
# Smn protein [1] = experiment: Smn protein assay in human motor neurons; format: cell-based; details: human motor neurons derived from SMA iPS cells, 72 hours, increasing concentrations, FIG. 10
# Procedure: Smn immunofluorescent confocal microscopy is used to quantify the level of Smn protein in human motor neurons treated with test compounds.
# Human motor neurons derived from SMA iPS cells (Ebert et al., Nature, 2009, […]; and, Rubin et al., BMC Biology, 2011, 9:42) are treated with test compound at various concentrations for 72 hours. The level of Smn protein in the cell nucleus is quantified using Smn immunostaining and confocal fluorescence microscopy essentially as described in Makhortova et al., Nature Chemical Biology, 2011, 7:544. The level of Smn protein in compound-treated samples is normalized to that in vehicle-treated samples and plotted as a function of the compound concentration.
# Smn protein [2] = experiment: Smn protein assay in cultured cells (SMN HTRF); format: cell-based, human; details: for Smn protein expression: SMA Type 1 patient fibroblast cells, 48 hour, SMN HTRF assay, FIG. 8; for EC1.5x for Smn protein expression / maximum fold (Fold) increase of Smn protein: SMA patient fibroblast cells (GM03813), 48 hours; for EC1.5x for Smn protein expression: 7-point concentration curve, concentration producing 1.5 times Smn protein vs DMSO vehicle; for maximum fold (Fold) increase of Smn protein: 7-point concentration data, relative to vehicle control
# Summary of the method: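 Smn protein measured by HTRF (anti-SMN d2/kryptate) in lysates of SMA patient fibroblasts after 48 h compound treatment, 7-point 3.16-fold dilutions, triplicates. The 665/620 nm ratio is blank-corrected to ΔF, then divided by the vehicle ΔF to give fold increase.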
# [3] = test system: SMA Δ7 homozygous knockout mice; experiment: Survival of neonatal Δ7 SMA mice; format: in vivo; details: IP QD PND 3 to PND 23, then orally BID from PND 24 until study end, FIG. 15
# Procedure: The change in the number of surviving mice over time is used to determine whether treatment with a test compound improves survival.
# SMA Δ7 homozygous knockout mice are dosed intraperitoneally (IP) with test compound or vehicle (100% DMSO) QD from PND 3 until the dose regimen is switched to an oral dose BID in 0.5% hydroxypropylmethyl cellulose (HPMC) with 0.1% Tween-80 at a dose 3.16-fold higher than the dose used for IP and later switched to an oral dose QD in 0.5% hydroxypropylmethyl cellulose (HPMC) with 0.1% Tween-80 at a dose 6.32-fold higher than the dose used for IP. The number of surviving mice in each group is recorded every day and plotted as a percent of total number of mice. Tissues of SMA Δ7 and age-matched heterozygous mice are collected for the measurement of Smn protein levels and processed as detailed in Example 10. The total protein normalized Smn protein levels measured in the tissues are plotted as a percent of those in the age-matched heterozygous mice tissues, with the Smn level in heterozygous mice set to 100 percent. The level of Smn protein in the test compound treated mice tissue relative to that in heterozygous mice tissue is indicated as a percent value above each bar in the graph.
# Smn protein [4] = experiment: Smn protein levels in tissues of Δ7 SMA mice of the survival study; format: in vivo; details: Compound 65 until PND 144, Compound 69 until PND 80 and PND 83, relative to vehicle treated and age-matched heterozygous mice, FIG. 16
# Procedure: The tissue samples in Safe-Lock tubes are weighed and the volume of RIPA buffer containing the protease inhibitor cocktail is added based on the weight to volume ratios for each type of tissue: Brain (50 mgmL), Muscle (50 mgmL) and Spinal Cord (25 mgmL).
# Tissues are homogenized using the TissueLyzer by bead milling. 5 mm stainless steel beads are added to the sample and shaken vigorously for 5 minutes at 30 Hz in the TissueLyzer. The samples are then centrifuged for 20 minutes at 14,000×g in a microcentrifuge and the homogenates transferred to the PCR plate. The homogenates are diluted in RIPA buffer to approximately 1 mgmL for HTRF and approximately 0.5 mgmL for total protein measurement using the BCA protein assay. […] Fluorescence for each well of the plate at 665 nm and 620 nm is measured on an EnVision multilabel plate reader (Perkin-Elmer). The total protein in the tissue homogenate is measured using the BCA assay according to the manufacturer's protocol.
# The normalized fluorescence signal is calculated for each sample, Blank and vehicle control well by dividing the signal at 665 nm by the signal at 620 nm. Normalizing the signal accounts for possible fluorescence quenching due to the matrix effect of the tissue homogenate. […] The ΔF value for each tissue sample well is divided by the total protein quantity (determined using the BCA assay) for that tissue sample. […]
SMILES,Smn protein in the nucleus (Smn protein [1]),Smn protein expression (Smn protein [2]),EC1.5x for Smn protein expression (Smn protein [2]),maximum fold (Fold) increase of Smn protein (Smn protein [2]),survival [3],Smn protein expression in brain and muscle tissues (Smn protein [4])
"Cc1cn2cc(-c3cc4ccc(N5CCN6CCC[C@H]6C5)cc4c(=O)o3)nc2c(C)n1 [Cpd 69, 3-(6,8-dimethylimidazo[1,2-a]pyrazin-2-yl)-7-[(8aS)-hexahydropyrrolo[1,2-a]pyrazin-2(1H)-yl]-1H-isochromen-1-one]",progressively more Smn protein in the nucleus,dose dependent increase in Smn protein expression,**** (an EC1.5×≦0.3 nM is indicated by four stars (****)),***** (a fold increase >1.65 is indicated by five stars (*****)),improved compared to vehicle treated mice,increased Smn protein expression in brain and muscle tissues
"Cc1cn2cc(-c3cc4ccc(N5CCN(C)CC5)cc4c(=O)o3)nc2c(C)n1 [Cpd 65, 3-(6,8-dimethylimidazo[1,2-a]pyrazin-2-yl)-7-(4-methylpiperazin-1-yl)-1H-isochromen-1-one]",progressively more Smn protein in the nucleus,dose dependent increase in Smn protein expression,**** (an EC1.5×≦0.3 nM is indicated by four stars (****)),***** (a fold increase >1.65 is indicated by five stars (*****)),improved compared to vehicle treated mice,increased Smn protein expression in brain and muscle tissues
